According to publication PMC3224194 (European journal of pharmacology, 2011):
Residue numbers refer to the chain shown, from its start.

Tests used:
Assay in all cases: competition with [3H]-mesulergine, HEK membranes
Format in all cases: binding
[1] = biological target: T1, human 5-HT2C-INI (WT) receptor (Homo sapiens, UniProt P28335)
T1 sequence (P28335 33-458): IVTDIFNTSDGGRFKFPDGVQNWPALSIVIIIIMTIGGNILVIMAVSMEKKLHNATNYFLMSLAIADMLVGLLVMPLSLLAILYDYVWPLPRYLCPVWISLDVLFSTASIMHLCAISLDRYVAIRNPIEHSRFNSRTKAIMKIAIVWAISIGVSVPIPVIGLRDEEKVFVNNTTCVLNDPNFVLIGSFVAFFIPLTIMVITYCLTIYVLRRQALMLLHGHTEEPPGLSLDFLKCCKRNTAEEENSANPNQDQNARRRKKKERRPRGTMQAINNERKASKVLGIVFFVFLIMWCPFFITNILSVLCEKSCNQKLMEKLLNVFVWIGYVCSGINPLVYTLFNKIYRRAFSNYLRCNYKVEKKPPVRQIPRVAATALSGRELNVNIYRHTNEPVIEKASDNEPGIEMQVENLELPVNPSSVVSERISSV

[2] = biological target: T2, human 5-HT2C-INI (WT) receptor (Homo sapiens, UniProt P28335, S138A)
T2 sequence (P28335 33-458 S138A): T1 sequence (P28335 33-458) with S106A

[3] = biological target: T3, human 5-HT2C-INI (WT) receptor (Homo sapiens, UniProt P28335, Y358A)
T3 sequence (P28335 33-458 Y358A): T1 sequence (P28335 33-458) with Y326A

Compound	Ki [1] [µM]	Ki [2] [µM]	Ki [3] [µM]
NC1Cc2ccccc2C(c2ccccc2)C1 (racemic) [NH2-PAT]	1.55	9.04	1.35
NCCc1c[nH]c2ccccc12 [Tryptamine]	0.0571	1.51	0.298
